According to the NIST ThermoML archive (doi:10.1016/j.jct.2012.12.015):
± gives the expanded uncertainty stated by the source.

Tests used:
[1] = Crystal; visual observation
[2] = xn = mol fraction of the nth substance listed; details: 101 kPa, Liquid, Pulse-echo method, x2 = 0.5

With `[Ag][I]` [silver iodide] as the molecule, how does the Normal melting temperature [1] read?
Its Normal melting temperature is 559 ± 1 °C.

Which results are given for `[Ag][I]` [silver iodide] + [Cl-].[Na+]?
speed of sound ([2]; 1065 K): 1360 ± 8 m/s; speed of sound ([2]; 1071 K): 1357 ± 8 m/s; speed of sound ([2]; 1075 K): 1354 ± 8 m/s

Which Normal melting temperature [1] does the source give for `[Cl-].[Na+]` [sodium chloride] here?
The Normal melting temperature was 801 ± 1 °C.
